Results reported in US20260216177A1, “CO-DRUG, CO-ADMINISTRATION, AND SEQUENTIAL ADMINISTRATION OF SELECTIVE TTR LIGAND AND C20-D3-RETINOL FOR ELIMINATION OF MECHANISM-BASED OCULAR ADVERSE EFFECTS IN TREATING MACULAR DEGENERATION AND TTR AMYLOIDOSIS” (The Trustees of Columbia University in the City of New York, priority 2023, published 2026).
Entries after “also recorded” stand apart in the source; their conditions may differ.

Assays:
rhodopsin = experiment: Rhodopsin measured spectrophotometrically in retinal extracts of treated Balb/c mice; type: in vivo; conditions: Balb/c (wild-type) mice, 25 mg/kg daily oral, 10 days
Method: Thus, ACPHS-14 was used as a representative “first component” of the present disclosure in order to assess the feasibility of using β-carotene as the “second component” in the co-drug strategy. Accordingly, an experiment was conducted to determine whether partial reduction in functional rhodopsin (opsin with conjugated 11-cis-retinal) induced by oral ACPHS-14 in mice can be compensated by co-administration with β-carotene. An experiment was also conducted to determine whether co-administration of ACPHS-14 and β-carotene can restore retinal function as can be assessed by electroretinography (ERG). It was previously reported that ACPHS-14 can induce a pronounced reduction in serum RBP4 along with stabilization of TTR tetramers (Cioffi, C. L. et al. 2021).
The experiments were conducted in Balb/c mice. Three groups of mice were used: control untreated mice; mice treated with ACPHS-14; and mice treated with the ACPHS-14 plus β-carotene combination. […] Following compound dosing, retinal function in the mice was assessed by ERG as previously described (Racz, B. et al. 2018). […] Rhodopsin was measured spectrophotometrically in the retinal extracts using a previously published protocol (Racz, B. et al. 2018).

Balb/c mice = experiment: Retinal function by electroretinography (scotopic ERG a-wave) in treated Balb/c mice; type: in vivo; conditions: 1.89 log cd*s/m2 light intensity; 25 mg/kg daily oral, 10 days
Method: The experiments were conducted in Balb/c mice. Three groups of mice were used: control untreated mice; mice treated with ACPHS-14; and mice treated with the ACPHS-14 plus β-carotene combination. ACPHS-14 was administered through oral gavage at a 25 mg/kg dose formulated into the chow to ensure a standard daily oral dosing of the compound at the 25 mg/kg dose. β-carotene was dissolved in olive oil and was administered through oral gavage daily at a daily 6 mg/kg dose. Dosing duration was 10 days. Following compound dosing, retinal function in the mice was assessed by ERG as previously described (Racz, B. et al. 2018).

serum RBP4 = conditions: mice; cited from earlier work
RBP4 = RBP4 (Homo sapiens, UniProt P02753); conditions: cited from earlier work
[1] = in vivo; cited from earlier work
Abca4-/- mouse model = conditions: cited from earlier work
TTR tetramers = TTR tetramers (Homo sapiens, UniProt P02766); conditions: cited from earlier work
[2] = in vitro; cited from earlier work
[3] = cited from earlier work
[4] = ATTR-CM patients, Phase III; cited from earlier work
[5] = cited from earlier work; remark: listed apart in the source
[6] = long-term use in cancer patients; cited from earlier work
[7] = Phase 2, dry AMD patients; no ocular AEs with placebo; cited from earlier work
[8] = patients treated for TTR amyloidosis; cited from earlier work

Cc1n[nH]c(C)c1N1CCN(c2cc(C(=O)O)ccc2F)CC1 [ACPHS-14]
rhodopsin in comparison to untreated mice (rhodopsin): significantly reduced rhodopsin
reduction of scotopic ERG a-wave amplitude in comparison to untreated mice (Balb/c mice): 45%
RBP4-lowering efficacy (serum RBP4): excellent RBP4-lowering efficacy; also recorded: significantly decreasing the concentration of serum RBP4
competition with retinol binding to RBP4 (RBP4): does not compete with retinol binding to RBP4
oral bioavailability [1]: orally bioavailable
bisretinoid reduction (Abca4-/- mouse model; Abca4-/- mouse model): excellent bisretinoid reduction
stabilization of TTR tetramers (TTR tetramers): inducing stabilization of TTR tetramers

[2H]C([2H])([2H])C(/C=C/C=C(C)/C=C/C1=C(C)CCCC1(C)C)=C\C=O [C20-D3-retinaldehyde]
rate of dimer formation relative to unlabeled retinaldehyde (times less rapidly) [2]: 12 times
reduction of bisretinoid A2E formation [2]: 7 fold

[2H]C([2H])([2H])C(/C=C/C=C(C)/C=C/C1=C(C)CCCC1(C)C)=C\COC(C)=O [C20-D3-retinyl acetate]
inhibition of bisretinoid synthesis and normalization of complement system dysregulation in the retina (Abca4-/- mouse model; Abca4-/- mice, model of Stargardt disease (STGD1)): effective

CC(=O)N1CCc2c(C(=O)N3CCC(c4ccc(F)c(F)c4C(F)(F)F)CC3)n[nH]c2C1 [Tinlarebant]
ocular adverse effects in a subset of patients [3]: asymptomatic delayed dark adaptation (measured only instrumentally) or symptomatic xanthopsia

O=C(O)c1ccc2nc(-c3cc(Cl)cc(Cl)c3)oc2c1 [compound 3, tafamidis]
reduction of the rate of cardiovascular-related hospitalizations compared to placebo controls [4]: 32%
reduction of the risk of death compared to placebo controls [4]: 30%
patients who do not respond [5]: Approximately 30%

CC1=C(/C=C/C(C)=C/C=C/C(C)=C/C(=O)Nc2ccc(O)cc2)C(C)(C)CCC1 [fenretinide]
yearly prevalence of transient and reversible ocular AEs such as diminished dark adaptation [6]: 5.8-6.7%
drug-treated patients with reversible reduction in dark adaptation [7]: ~ 10%

patisiran
ocular symptoms in clinical use [8]: symptoms of night blindness in a subset of patients
